Laboratory results taken from patent US20260092054A1, “FUSED RING COMPOUND AND PHARMACEUTICAL CONTAINING SAME” (KAKEN PHARMACEUTICAL CO., LTD., priority 2022, published 2026).

Columns and labels:
[1] = molecular target: T1, human STAT6/pIL-4Rα (Homo sapiens, UniProt P42226); experiment: Binding inhibitory activity between human STAT6/pIL-4Rα by fluorescence polarization method; conditions: rhSTAT6 (123-658) / FAM-pIL-4Rα peptide
T1 construct: histidine tag
T1 sequence (P42226 123-658): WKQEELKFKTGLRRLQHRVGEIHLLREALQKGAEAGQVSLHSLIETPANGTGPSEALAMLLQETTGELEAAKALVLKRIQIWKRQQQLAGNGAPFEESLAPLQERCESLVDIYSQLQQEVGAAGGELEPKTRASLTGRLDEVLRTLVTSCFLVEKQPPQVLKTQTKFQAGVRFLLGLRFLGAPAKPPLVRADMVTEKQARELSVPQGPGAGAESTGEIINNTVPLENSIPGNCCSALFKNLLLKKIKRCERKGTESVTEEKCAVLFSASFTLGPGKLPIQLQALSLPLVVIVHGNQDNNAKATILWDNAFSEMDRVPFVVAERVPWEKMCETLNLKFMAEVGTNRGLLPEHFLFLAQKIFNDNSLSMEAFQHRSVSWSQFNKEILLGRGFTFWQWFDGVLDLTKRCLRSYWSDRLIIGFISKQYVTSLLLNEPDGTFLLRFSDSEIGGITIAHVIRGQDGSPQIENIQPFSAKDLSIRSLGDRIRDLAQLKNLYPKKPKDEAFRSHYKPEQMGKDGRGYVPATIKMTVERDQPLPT
Procedure: Test Example 1: Measurement of Binding Inhibitory Activity Between Human STAT6/pIL-p 4Rα by Fluorescence Polarization Method
1) Construction of Histidine Tag-Fused Recombinant Human STAT6 (123 to 658 Region)
A histidine tag-fused recombinant human STAT6 (hereinafter referred to as rhSTAT6) expression vector [plasmid DNA in which a nucleic acid sequence containing human STAT6 (123-658 region) was inserted into a pET28a(+) vector (Novagen)] was inserted into E. coli, and the cells were cultured overnight under culturing conditions at 17° C. with IPTG treatment. After disrupting E. coli with a high-pressure homogenizer (EmulsiFlex-C3, manufactured by AVESTIN, Inc.), affinity purification using Ni-NTA agarose (manufactured by Qiagen), cation exchange chromatography using HiTrap® CM-FF (manufactured by GE healthcare), and gel filtration chromatography using Superdex® 200 10/300GL (manufactured by GE healthcare) were performed to obtain rhSTAT6.
2) Measurement of Binding Inhibitory Activity Between Human STAT6/pIL-4Rα by Fluorescence Polarization Method
A DMSO solution of the example compound was diluted with an assay buffer [for example, a buffer containing 50 mmol/L NaCl, 10 mmol/L HEPES (pH 7.0), 1 mmol/L DTT, 1 mmol/L EDTA, and 0.01 vol % NP-40, and the like] to prepare a compound-added solution. The DMSO concentration in the compound addition solution was adjusted to 1 or 2 vol %. 10 μL of the compound addition solution and an assay buffer containing 1 or 2 vol % DMSO were added to each well of a 384-well plate. 5 μL of an assay buffer solution containing rhSTAT6 (rhSTAT6 concentration: for example, 1 μmol/L) or an assay buffer was added to each well of a 384-well plate. After leaving the plate at room temperature for 30 minutes in the dark, 5 μL of an assay buffer solution (FAM-pIL-4Rp concentration: for example, 80 nmol/L) containing FAM-labeled phosphorylated IL-4Rα peptide (sequence: FAM-Ala-pTyr-Lys-Pro-Phe-Gln-Asp-Leu-IIe-NH2) (hereinafter, FAM-pIL-4Rp) or an assay buffer containing 2 vol % DMSO was added to each well of the 384-well plate. The mixture was left to stand at room temperature for 30 minutes in the dark, and then centrifuged (200 g, 1 minute, room temperature). Fluorescence polarization values were measured using Infinite (registered trademark) F500 (manufactured by Tecan Japan Co., Ltd.) (Excitation: 485 nm, Emission: 535 nm). The inhibition rate of each Example compound was calculated according to the following formula using the fluorescence polarization value (A) when rhSTAT6 and FAM-pIL-4Rp were added without adding the Example compound, the fluorescence polarization value (B) when FAM-pIL-4Rp was added without adding the Example compound and rhSTAT6, and the fluorescence polarization value (C) when each Example compound, rhSTAT6, and FAM-pIL-4Rp were added.
In the evaluation of each example compound, the 50% inhibitory concentration (IC50) of each example compound was calculated from a linear function equation of a straight line connecting two points sandwiching 50%.

[2] = system: human STAT6; experiment: Human STAT6 dependent reporter activity (IL-4 stimulated STAT6 reporter assay using STAT6-HEK293 cells); type: cell-based; conditions: Homo sapiens, IL-4 stimulation, luciferase activity, read-out: Inhibition rate (%); for inhibition at 0.1 µM: compound 0.1 μmol/L; for inhibition at 1 µM: compound 1 μmol/L
Procedure: Test Example 2: Measurement of Human STAT6 Dependent Reporter Activity
1) Construction of Human STAT6-HEK293 Cells
HEK 293 cells maintenance cultured by [Penicillin-Streptomycin (Thermo Fisher Scientific) and FBS, 1 vol % and 10 vol % respectively added to DMEM high glucose (Thermo Fisher Scientific)](manufactured by ATCC) were collected, and suspended in 10 mL of 0.5% BSA/PBS. 1×10^6 cells were collected, the supernatant was removed by centrifuging, and the cells were suspended in 100 μL of Nucleofector solution V (manufactured by Lonza K.K.). 2 μg of STAT6 vector [plasmid DNAs incorporating human STAT6 sequences in pcDNA3.1 (Invitrogen)] was added, and the STAT6 vector was introduced into the HEK293 cells using the program Q-001 initially registered in the Nucleofector®2b. A cell line (STAT6-HEK293 cells) consistently expressing STAT6 was acquired by selecting resistant cells in a medium containing Geneticin® (manufactured by Thermo Fisher Scientific). 2) STAT6 reporter assay using STAT6-HEK293 cells 3×10^6 STAT6-HEK293 cells maintained in assay medium [culture medium supplemented with 1 vol % Geneticin®] were harvested and seeded in a 10 cm dish. 3 μg of a STAT6 reporter vector [plasmid in which a sequence containing a STAT6 binding sequence and a C/EBP binding sequence in tandem was incorporated into pGL4.27 (manufactured by Promega Corporation)] and 9 μL of FuGENE® HD transfection reagent (manufactured by Promega Corporation) were added to 500 μL of Opti-MEM® (manufactured by Thermo Fisher Scientific) to prepare transfection solutions. The transfection solution was vortexed and left to stand for about 5 minutes, then added dropwise to the STAT6-HEK293 cells, which were then cultured overnight in a C02 incubator to produce STAT6 reporter cells.
The prepared STAT6 reporter cells were seeded on B&W isoplate-96 TC (PerkinElmer Japan Co., Ltd.) (3×10^4 cells/50 μL/well) and cultured overnight in a C02 incubator (37° C., 5% C02). 50 μL of assay medium was added to each well instead of the STAT6 reporter cells. The compound addition solution was prepared by diluting the DMSO solution of the example compound 250-fold using the assay medium. 20 μL of compound addition solution or 0.4 vol % DMSO-containing assay medium was added to the plate, and the plate was then cultured in a CO2 incubator for 1 hour. 10 μL of 80 ng/mL human IL-4 solution (Peprotech) or assay medium was added to each well, and the cells were cultured in a CO2 incubator for 6 hours.
STAT6 reporter activity was measured using the Bright-Glo® Luciferase Assay System (Promega). 100 μL of Bright-Glo® reagent was added to each well, and luciferase activity was measured using Infinite® F500. The inhibition rate of each Example compound was calculated by the following formula using the luciferase activity value (G) when no Example compound was added and stimulation with IL-4 was performed, the luciferase activity value (H) when no Example compound was added and stimulation with IL-4 was not performed, and the luciferase activity value (I) when each Example compound was treated and stimulation with IL-4 was performed.
Note that the viable cell rate under each condition was 70% or more, and it was determined that the luciferase activity inhibitory activity of each example compound was appropriately evaluated.

IC50 [1] | SMILES | inhibition at 0.1 µM [2] | inhibition at 1 µM [2]
440 nM | CCn1c(-c2ccc(N3C(=O)C(C)CC3C)cc2)nc2cc(C(F)(F)F)cc(C(=O)Nc3cccc(C(N)=O)c3)c21 (racemic) [Ex. 11] | 43% | 92%
350 nM | CCn1c(-c2ccc(N3C(=O)C(C)CC3C)cc2)nc2cc(C(F)(F)F)cc(C(=O)Nc3cccc(C(N)=O)c3)c21 (single isomer, unassigned) [Ex. 12] | 47% | 94%
280 nM | CCn1c(-c2ccc(N3C(=O)C(C)CC3C)cc2)nc2cc(C(F)(F)F)cc(C(=O)Nc3cccc(C(N)=O)c3F)c21 (single isomer, unassigned) [Ex. 219] | 32% | 96%
360 nM | CC1CC(C)N(c2ccc(-c3cc4ccnc(C(=O)Nc5ccc(F)c(C(N)=O)c5)c4n3CC3(C#N)CC3)cc2)C1=O (single isomer, unassigned) [Ex. 221] | 60% | 94%
320 nM | CC1CC(C)N(c2ccc(-c3cc4ccnc(C(=O)Nc5cccc(C(N)=O)c5F)c4n3CC3(C#N)CC3)cc2)C1=O (single isomer, unassigned) [Ex. 223] | 67% | 
390 nM | CCn1c(-c2ccc(-n3cnn(C)c3=O)cc2)nc2cc(C(F)(F)F)cc(C(=O)Nc3cccc(C(N)=O)c3F)c21 [Ex. 1] | 22% | 93%
490 nM | CCn1c(-c2ccc3c(c2)CCN3C(C)=O)nc2cc(C(F)(F)F)cc(C(=O)Nc3cccc(C(N)=O)c3F)c21 [Ex. 2] | 14% | 72%
320 nM | COCCn1c(-c2ccc(-n3c(C)nn(C)c3=O)cc2)cc2cc(C(F)(F)F)cc(C(=O)Nc3cccc(C(=O)Nc4ccn(C)n4)c3)c21 [Ex. 117] |  | 
570 nM | CCn1c(-c2ccc(-n3c(C)nn(C)c3=O)nn2)cc2cc(C(F)(F)F)cc(C(=O)Nc3ccc(F)c(C(N)=O)c3)c21 [Ex. 128] |  | 
910 nM | CCn1c(-c2ccc(-n3cnn(C)c3=O)cc2)c(Cl)c2cc(C(F)(F)F)cc(C(=O)Nc3cccc(C(N)=O)c3)c21 [Ex. 141] |  | 
300 nM | COCCn1c(-c2ccc(-n3c(C)nn(C)c3=O)cc2)cc2cc(C(F)(F)F)cc(C(=O)Nc3cccc(C(=O)O)c3)c21 [Ex. 162] |  | 
320 nM | CCn1c(-c2ccc(-n3c(C)nn(C)c3=O)cc2)cc2ccnc(C(=O)Nc3cccc(C(=O)O)c3)c21 [Ex. 164] |  | 
270 nM | COCCn1c(-c2ccc(-n3c(C)nn(C)c3=O)cc2)cc2cc(C(F)(F)F)cc(C(=O)Nc3cccc(C(=O)O)n3)c21 [Ex. 184] |  | 
7060 nM | C/C=C/c1cc(C(=O)Nc2cccc(C(N)=O)c2)c2c(c1)nc(-c1ccc(N(C)C(C)=O)cc1)n2CCOC [Ex. 203] |  | 
2350 nM | CCCc1cc(C(=O)Nc2cccc(C(N)=O)c2)c2c(c1)nc(-c1ccc(N(C)C(C)=O)cc1)n2CCOC [Ex. 204] |  | 
8440 nM | COCCn1c(-c2ccc(N(C)C(C)=O)cc2)nc2cc(CCC(C)(C)OC)cc(C(=O)Nc3cccc(C(N)=O)c3)c21 [Ex. 205] |  | 
3620 nM | C#Cc1cc(C(=O)Nc2cccc(C(N)=O)c2)c2c(c1)nc(-c1ccc(N(C)C(C)=O)cc1)n2CCOC [Ex. 206] |  | 
2950 nM | C=Cc1cc(C(=O)Nc2cccc(C(N)=O)c2)c2c(c1)nc(-c1ccc(N(C)C(C)=O)cc1)n2CCOC [Ex. 207] |  | 
2080 nM | COCCn1c(-c2ccc(N(C)C(C)=O)cc2)nc2cc(C3CC3)cc(C(=O)Nc3cccc(C(N)=O)c3)c21 [Ex. 208] |  | 
6600 nM | COCCn1c(-c2ccc(N(C)C(C)=O)cc2)nc2cc(-c3ccccc3)cc(C(=O)Nc3cccc(C(N)=O)c3)c21 [Ex. 209] |  | 
2740 nM | COCCn1c(-c2ccc(N(C)C(C)=O)cc2)nc2cc(C(C)C)cc(C(=O)Nc3cccc(C(N)=O)c3)c21 [Ex. 210] |  | 
4980 nM | COCCn1c(-c2ccc(N(C)C(C)=O)cc2)nc2cc(CC(C)C)cc(C(=O)Nc3cccc(C(N)=O)c3)c21 [Ex. 211] |  | 
9030 nM | COCCn1c(-c2ccc(N(C)C(C)=O)cc2)nc2cc(C3CCCC3)cc(C(=O)Nc3cccc(C(N)=O)c3)c21 [Ex. 212] |  | 
3470 nM | COCCn1c(-c2ccc(N(C)C(C)=O)cc2)nc2cc(CO)cc(C(=O)Nc3cccc(C(N)=O)c3)c21 [Ex. 213] |  | 
3980 nM | COCCn1c(-c2ccc(N(C)C(C)=O)cc2)nc2cc(CC#N)cc(C(=O)Nc3cccc(C(N)=O)c3)c21 [Ex. 214] |  | 
2940 nM | COCCn1c(-c2ccc(N(C)C(C)=O)cc2)nc2cc(COC)cc(C(=O)Nc3cccc(C(N)=O)c3)c21 [Ex. 215] |  | 
590 nM | COCCn1c(-c2ccc(-n3c(C)nn(C)c3=O)cc2)cc2cc(C(F)(F)F)cc(C(=O)Nc3cccc(NS(C)(=O)=O)n3)c21 [Ex. 217] |  | 
270 nM | C/C(=C\C(=O)N[C@H](C(=O)N1CCC[C@H]1C(=O)N(C)c1ccccc1)C(C)(C)C)c1ccc(OP(=O)(O)O)cc1 [PM-301H, reference compound] |  | 
